Laboratory results: ChEMBL document CHEMBL1135002, “Optimization of a pyrazolo[1,5-a]pyrimidine class of KDR kinase inhibitors: improvements in physical properties enhance cellular activity and pharmacokinetics” (Bioorg Med Chem Lett, 2002)

Tests used:
[1] = Partition coefficient (logP); type: physicochemical; details: octanol/water
[2] = target: Vascular endothelial growth factor receptor 2 (Homo sapiens, UniProt P35968)
Description: Inhibition of Vascular endothelial growth factor receptor 2

[3] = The pharmacokinetic parameter half-life period in vivo in rats; type: ADME, organism-based; details: rat
[4] = The pharmacokinetic parameter volume of distribution in vivo in rats; type: ADME, organism-based; details: rat, read-out: Vdss
[5] = The pharmacokinetic parameter plasma clearance in vivo in rats; type: ADME, organism-based; details: rat, read-out: CI
[6] = Bioavailability in rat; type: ADME, organism-based; details: in vivo
[7] = target: Vascular endothelial growth factor receptor (Homo sapiens, UniProt P17948+P35916+P35968); details: endothelial cell
Description: Inhibition of VEGF-stimulated mitogenesis in endothelial cells

Chain of Vascular endothelial growth factor receptor 2 (P35968 whole entry): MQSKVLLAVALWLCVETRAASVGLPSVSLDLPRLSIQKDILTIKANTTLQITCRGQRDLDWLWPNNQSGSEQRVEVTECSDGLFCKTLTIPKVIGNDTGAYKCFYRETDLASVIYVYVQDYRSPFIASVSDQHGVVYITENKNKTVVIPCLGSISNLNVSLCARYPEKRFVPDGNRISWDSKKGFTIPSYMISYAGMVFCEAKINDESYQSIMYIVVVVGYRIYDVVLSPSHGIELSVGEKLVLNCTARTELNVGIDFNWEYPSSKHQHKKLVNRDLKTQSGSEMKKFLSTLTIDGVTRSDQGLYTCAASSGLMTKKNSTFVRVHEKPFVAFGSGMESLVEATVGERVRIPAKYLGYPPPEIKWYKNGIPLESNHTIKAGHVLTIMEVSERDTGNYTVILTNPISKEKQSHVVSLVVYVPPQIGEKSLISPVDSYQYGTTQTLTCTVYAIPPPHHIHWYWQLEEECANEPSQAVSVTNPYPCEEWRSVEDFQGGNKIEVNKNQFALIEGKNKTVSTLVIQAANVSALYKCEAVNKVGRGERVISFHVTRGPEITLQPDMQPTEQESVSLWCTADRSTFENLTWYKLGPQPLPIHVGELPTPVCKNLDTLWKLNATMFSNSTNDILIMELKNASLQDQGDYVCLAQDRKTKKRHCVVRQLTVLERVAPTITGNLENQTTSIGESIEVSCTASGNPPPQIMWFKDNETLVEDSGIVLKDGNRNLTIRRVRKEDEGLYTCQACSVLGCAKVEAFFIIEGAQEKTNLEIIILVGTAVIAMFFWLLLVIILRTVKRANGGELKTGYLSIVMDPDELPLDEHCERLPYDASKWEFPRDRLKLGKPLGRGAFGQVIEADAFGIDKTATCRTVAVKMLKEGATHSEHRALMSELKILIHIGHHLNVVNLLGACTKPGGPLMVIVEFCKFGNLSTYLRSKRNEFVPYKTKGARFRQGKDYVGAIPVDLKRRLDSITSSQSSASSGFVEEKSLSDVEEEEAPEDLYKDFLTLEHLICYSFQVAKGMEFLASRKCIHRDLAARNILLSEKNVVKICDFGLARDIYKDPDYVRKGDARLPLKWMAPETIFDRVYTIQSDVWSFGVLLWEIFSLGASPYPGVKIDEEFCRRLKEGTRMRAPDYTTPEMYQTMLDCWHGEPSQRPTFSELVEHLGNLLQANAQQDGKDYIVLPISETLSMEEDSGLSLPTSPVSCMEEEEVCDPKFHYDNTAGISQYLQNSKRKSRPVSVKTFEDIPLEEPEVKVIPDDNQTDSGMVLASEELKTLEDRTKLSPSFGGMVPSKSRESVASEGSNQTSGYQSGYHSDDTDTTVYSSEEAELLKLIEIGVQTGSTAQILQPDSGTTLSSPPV

SMILES	logP [1]	half-life [3]	Vd [4]	bioavailability [6]	IC50 [7]	further results
O=c1cc(-c2cnc3c(-c4ccccc4)cnn3c2)ccn1CCCN1CCCCC1	2.4	–	–	–	–	–
CN1CCN(CCCn2ccc(-c3cnc4c(-c5ccccc5)cnn4c3)cc2=O)CC1	2	–	–	–	–	–
c1cncc(-c2cnn3cc(-c4ccc(OCCN5CCCCC5)cc4)cnc23)c1	–	3.3 h	6 L/kg	42%	29 nM	IC50 [2]: 20 nM; clearance [5]: 23 mL/min/kg
CN1CCN(CCCn2ccc(-c3cnc4c(-c5ccsc5)cnn4c3)cc2=O)CC1	1.6	3.4 h	7.9 L/kg	56%	–	–
c1cc(-c2cnn3cc(-c4ccc(OCCN5CCOCC5)cc4)cnc23)ccn1	–	–	–	–	31 nM	–
COc1ccc(-c2cnc3c(-c4ccncc4)cnn3c2)cc1	–	–	–	–	150 nM	–
c1ccc(-c2cnn3cc(-c4ccc(OCCN5CCOCC5)cc4)cnc23)cc1	–	–	–	–	32 nM	IC50 [2]: 9 nM
COc1ccc(-c2cnc3c(-c4ccsc4)cnn3c2)cc1	> 4	–	–	–	–	–
c1cc(-c2cnn3cc(-c4ccc(OCCN5CCCCC5)cc4)cnc23)cs1 [L-21649]	> 4	5.1 h	16 L/kg	18%	–	–
